# According to patent US10752640B2, “Compounds active towards bromodomains” (NUEVOLUTION A/S, priority 2014, dated 2020):
# Target: BRD4 protein (Homo sapiens, UniProt O60885)
# Assay: FRET assay, half maximal inhibitory concentration (IC50)
# Assay type: binding
# Settings: BRD4 protein 50 nM, Biotin-H4KAc4 peptide 12.5 nM; A Further List of Classification
# Protocol: The compounds were biologically evaluated by determining the half maximal inhibitory concentration (IC50) by FRET assay. The IC50 is a measure of the effectiveness of a substance in inhibiting a specific biological or biochemical function.
# For IC50 determinations, dose-response curves were generated, using a top concentration of 50 μM compound in 12.5% DMSO, followed by 10-fold dilutions in 12.5% DMSO. The composition of the reaction buffer was 50 mM HEPES, pH 7.5; 100 mM NaCl, 0.05% CHAPS.
# The reaction was run in a final volume of 25 μl. The BRD4 protein (16.5 μl) was added to wells of 384w white Optiplates (Perkin Elmer) (50 nM final concentration) and 1 μl of compound dilution of DMSO control. Incubation time was 30 minutes at room temperature. In the next step, 2.5 μl Biotin-H4KAc4 peptide (Millipore 13-379) was added to the wells (final concentration was 12.5 nM), and the plates were incubated for 30 minutes at room temperature. Detection was performed by addition of 5 μl of a mix of mAb GST-XL665 (Cisbio 61GSTXLB) (10 nM final concentration) and Streptavidin Cryptate (Cisbio 610SAKLB) (2.4 nM final conc.) in reaction buffer with 0.4M KF and 0.05% BSA). The plates were incubated for one hour prior to reading on an Envision reader (Perkin Elmer)
# Data was analyzed using GraphPad Prism, and IC50 data was obtained using non-linear regression curve fit using log(inhibitor) vs response (variable slope). All compounds were considered active although classified (according to the half maximal inhibitory concentration (IC50) by FRET assay) as follows: […]
row,IC50,Compound
1,500 to 1000 nM,"Cc1cc(O)nc2ccc(NC(=O)c3cc(S(=O)(=O)N(C)C)ccc3N3CC(C)C(O)CC3C)cc12 (stereo not shown) [S66, 5-(dimethylsulfamoyl)-2-(4-hydroxy-2,5-dimethyl-1-piperidyl)-N-(2-hydroxy-4-methyl-6-quinolyl)benzamide]"
2,500 to 1000 nM,"Cc1cc(O)nc2ccc(NC(=O)c3cc(S(=O)(=O)N(C)C)ccc3N3CCC(CC(C)C)C3)cc12 (stereo not shown) [S46, 5-(dimethylsulfamoyl)-N-(2-hydroxy-4-methyl-6-quinolyl)-2-(3-isobutylpyrrolidin-1-yl)benzamide]"
3,> 10000 nM,"Cc1cc(O)nc2ccc(NC(=O)c3cc(S(=O)(=O)N4CCOCC4)ccc3Br)cc12 [S34, 2-bromo-N-(2-hydroxy-4-methyl-6-quinolyl)-5-morpholinosulfonyl-benzamide]"
4,200 to 500 nM,"Cc1cc(O)nc2ccc(NC(=O)c3cc([N+](=O)[O-])ccc3N(C)C)cc12 [S22, 2-(dimethylamino)-N-(2-hydroxy-4-methyl-6-quinolyl)-5-nitro-benzamide]"
5,500 to 1000 nM,"Cc1cc(O)nc2ccc(NC(=O)c3cc(S(=O)(=O)N(C)C)ccc3N3CCC(C)C3)cc12 (stereo not shown) [S41, 5-(dimethylsulfamoyl)-N-(2-hydroxy-4-methyl-6-quinolyl)-2-(3-methylpyrrolidin-1-yl)benzamide]"
6,1000 to 10000 nM,"CN1CCN(Cc2ccc(N3CCCC3)c(C(=O)Nc3ccc4c(c3)CCC(=O)N4)c2)CC1 [S80, 5-[(4-methylpiperazin-1-yl)methyl]-N-(2-oxo-3,4-dihydro-1H-quinolin-6-yl)-2-pyrrolidin-1-yl-benzamide]"
7,500 to 1000 nM,"Cc1cc(O)nc2ccc(NC(=O)c3cc(CN4CCOCC4)cnc3N3CCCC3C(=O)N(C)C)cc12 (stereo not shown) [S109, 2-[2-(dimethylcarbamoyl)pyrrolidin-1-yl]-N-(2-hydroxy-4-methyl-6-quinolyl)-5-(morpholinomethyl)pyridine-3-carboxamide]"
8,< 200 nM,"Cc1cc(O)nc2ccc(NC(=O)c3cc(S(=O)(=O)N(C)C)ccc3N3CCC(C(N)=O)C3)cc12 (stereo not shown) [S44, 1-[4-(dimethylsulfamoyl)-2-[(2-hydroxy-4-methyl-6-quinolyl)carbamoyl]phenyl]pyrrolidine-3-carboxamide]"
9,200 to 500 nM,"Cc1cc(O)nc2ccc(NC(=O)c3ccccc3N3CCOCC3)cc12 [S2, N-(2-hydroxy-4-methyl-6-quinolyl)-2-morpholino-benzamide]"
10,> 10000 nM,"Cc1cc(O)nc2ccc(NC(=O)c3cc(CN4CCOCC4)cnc3N3CCOC(CN(C)C)C3)cc12 (stereo not shown) [S117, 2-[2-(dimethylaminomethyl)morpholin-4-yl]-N-(2-hydroxy-4-methyl-6-quinolyl)-5-(morpholinomethyl)pyridine-3-carboxamide]"
11,1000 to 10000 nM,"O=C1CCc2cc(NC(=O)c3cc(S(=O)(=O)N4CCOCC4)ccc3N3CCCC3)ccc2N1 [S78, 5-morpholinosulfonyl-N-(2-oxo-3,4-dihydro-1H-quinolin-6-yl)-2-pyrrolidin-1-yl-benzamide]"
12,200 to 500 nM,"Cc1cc(O)nc2ccc(NC(=O)c3cc(CN4CCOCC4)cnc3N3CCCC3C)cc12 (stereo not shown) [S94, N-(2-hydroxy-4-methyl-6-quinolyl)-2-(2-methylpyrrolidin-1-yl)-5-(morpholinomethyl)pyridine-3-carboxamide]"

# Same assay, conditions: BRD4 protein 50 nM, Biotin-H4KAc4 peptide 12.5 nM; List of Classification
row,IC50,Compound
1,< 200 nM,"Cc1cc(O)nc2ccc(NC(=O)c3cccnc3N3CCOC4CNCC43)cc12 (stereo not shown) [Compound-142, 2-(3,4a,5,6,7,7a-hexahydro-2H-pyrrolo[3,4-b][1,4]oxazin-4-yl)-N-(2-hydroxy-4-methyl-6-quinolyl)pyridine-3-carboxamide]"
2,200 to 500 nM,"CC1(C)CC(=O)Nc2ccc(NC(=O)c3cc(CN4CCOCC4)ccc3N3CCCC3)cc21 [Compound-103, N-(4,4-dimethyl-2-oxo-1,3-dihydroquinolin-6-yl)-5-(morpholinomethyl)-2-pyrrolidin-1-yl-benzamide]"
3,< 200 nM,"Cc1cc(O)nc2ccc(NC(=O)c3cc([N+](=O)[O-])ccc3N3CCCC3)cc12 [Compound-82, N-(2-hydroxy-4-methyl-6-quinolyl)-5-nitro-2-pyrrolidin-1-yl-benzamide]"
4,< 200 nM,"CC(=O)c1cc(C(=O)Nc2ccc3nc(O)cc(C)c3c2)c(N2CCCC2CN(C)C)cn1 (stereo not shown) [Compound-212, 2-acetyl-5-(2-((dimethylamino)methyl)pyrrolidin-1-yl)-N-(2-hydroxy-4-methylquinolin-6-yl)isonicotinamide]"
5,< 200 nM,"Cc1cc(O)nc2ccc(NC(=O)c3cc(CN4CCOCC4)cnc3N3CCCC3)cc12 [Compound-87, N-(2-hydroxy-4-methyl-6-quinolyl)-5-(morpholinomethyl)-2-pyrrolidin-1-yl-pyridine-3-carboxamide]"
6,< 200 nM,"Cc1cc(O)nc2ccc(NC(=O)c3cccnc3N3CCCC3CN(C)C)cc12 (stereo not shown) [Compound-121, 2-[2-(dimethylaminomethyl)pyrrolidin-1-yl]-N-(2-hydroxy-4-methyl-6-quinolyl)pyridine-3-carboxamide]"
7,1000 to 10000 nM,"Cc1cc2nc(O)cc(C)c2cc1NC(=O)c1c(C)ccnc1N1CCOCC1 [Compound-137, N-(2-hydroxy-4,7-dimethyl-6-quinolyl)-4-methyl-2-morpholino-pyridine-3-carboxamide]"
8,200 to 500 nM,"Cc1cc2nc(O)cc(C)c2cc1NC(=O)c1cccnc1N1CCC(F)(F)C1 [Compound-127, 2-(3,3-difluoropyrrolidin-1-yl)-N-(2-hydroxy-4,7-dimethyl-6-quinolyl)pyridine-3-carboxamide]"
9,< 200 nM,"Cc1cc(O)nc2ccc(NC(=O)c3cc(CN4CCOCC4)ccc3N3CCC(O)C3)cc12 (stereo not shown) [Compound-31, N-(2-hydroxy-4-methyl-6-quinolyl)-2-(3-hydroxypyrrolidin-1-yl)-5-(morpholinomethyl)benzamide]"
10,< 200 nM,"Cc1cc2nc(O)cc(C)c2cc1NC(=O)c1cc(-c2cnoc2)ccc1N1CCOCC1 [Compound-163, N-(2-hydroxy-4,7-dimethyl-6-quinolyl)-5-isoxazol-4-yl-2-morpholino-benzamide]"
11,< 200 nM,"Cc1cc(O)nc2ccc(NC(=O)c3cc(S(=O)(=O)N(C)C)ccc3N3CCC(O)C3)cc12 (stereo not shown) [Compound-17, 5-(dimethylsulfamoyl)-N-(2-hydroxy-4-methyl-6-quinolyl)-2-(3-hydroxypyrrolidin-1-yl)benzamide]"
12,1000 to 10000 nM,"Cc1cc(O)nc2ccc(NS(=O)(=O)c3cc([N+](=O)[O-])ccc3N3CCOCC3)cc12 [Compound-76, N-(2-hydroxy-4-methyl-6-quinolyl)-2-morpholino-5-nitro-benzenesulfonamide]"
13,< 200 nM,"Cc1cc2nc(O)cc(C)c2cc1NC(=O)c1cc(-c2nnn(C)n2)cnc1N1CCOCC1 [Compound-195, N-(2-hydroxy-4,7-dimethylquinolin-6-yl)-5-(2-methyl-2H-tetrazol-5-yl)-2-morpholinonicotinamide]"
14,< 200 nM,"Cc1cc(O)nc2c(C)cc(NC(=O)c3cc(-c4ccoc4)ccc3N3CCOCC3)cc12 [Compound-157, 5-(3-furyl)-N-(2-hydroxy-4,8-dimethyl-6-quinolyl)-2-morpholino-benzamide]"
15,< 200 nM,"Cc1cc(O)nc2ccc(NC(=O)c3cc(CN4CCOCC4)cnc3N3CCC(O)C3)cc12 (stereo not shown) [Compound-89, N-(2-hydroxy-4-methyl-6-quinolyl)-2-(3-hydroxypyrrolidin-1-yl)-5-(morpholinomethyl)pyridine-3-carboxamide]"
16,1000 to 10000 nM,CC(C)c1cc(O)nc2ccc(NC(=O)c3cccnc3N3CCOCC3)cc12 [Compound-129]
